Article PMC2426711 (AIDS Research and Therapy, 2008)
Read-outs that look alike come from different tables or passages of the source.

What was measured:
HIV-1 [1] = test system: HIV-1; design: method as in PMID 15790304; conditions: cited from earlier work
vaginal mucosa = test system: vaginal mucosa; design: method as in PMID 11162774; conditions: vaginal toxicity, New Zealand White rabbit; cited from earlier work
X4-tropic HIV-1NDK [2] = assay: Inhibition of infection of dendritic cells by X4-HIV-1NDK (p24 ELISA); format: cell-based; conditions: DC, mean ± 1 SD
Procedure: (§1) Primary X4-HIV-1NDK was grown in peripheral blood lymphocytes (PBL) of healthy donors stimulated with PHA and rhIL-2. R5-HIV-1Ba-L was amplified in monocyte-derived macrophages of healthy donors.
(§2) Cells were washed 2 times after 6 days of differentiation and seeded into 96-well culture plates (5 × 10^5 cells/well). HIV-1 (1 ng p24 antigen/ml) and increasing concentrations of molecules were added on cells and incubated for 3 hours at 37°C in a 5% CO2 atmosphere. Each sample was performed in triplicate. After 4 washes to remove exceeding virus, cells were cultured for 3 days. […] In this last case, supernatants were harvested and viruses produced were lysed by incubation for 45 minutes at 37°C with 1% Triton X-100.

HIV-1 [3] = test system: HIV-1
CD4, CXCR4 and CCR5 = conditions: primary cells treated with C14
Procedure: Cell surface antigens were analyzed by FACSCalibur (Becton Dickinson, NJ, USA) using monoclonal antibodies (mAbs) conjugated with either fluorescein isothiocyanate (FITC) or phyco-erithryn (PE). Following incubation with different mAbs for 30 min at 4°C, cells were washed with PBS containing azide (0.01%), BSA (0.2%) and fixed using 1% formaldehyde PBS buffer.

[4] = test system: HIV-1 DNA (R5-HIV-1Ba-L or X4-HIV-1NDK); assay: HIV-1 DNA content of primary cells by real time PCR; conditions: all primary cells, whatever the viral strain; increasing doses
Procedure: Genomic DNA was isolated from HIV-infected macrophages by using extraction protocol on a silica column system according to the manufacturer's instructions (Qiagen DNA minikit, AG, Basel, Switzerland). […] The LC-PCR master mix contained 1 × Fast-Start Taq DNA polymerase reaction buffer (Roche Applied Science), 3 mM MgCl2, 0.3 μM of each primer and probe. Cycling conditions were as follows: initial denaturation/FastStart Taq DNA polymerase activation at 95°C/10 minutes, 45 cycles of denaturation at 95°C/10 seconds, annealing and extension at 60°C/30 seconds with a ramp of 5°C/seconds. The first PCR cycle allowing fluorescence detection permitted to quantify HIV-1 DNA by reference to a standard curve (dilutions of 8E5 cell DNA). All reactions were performed in triplicate and tested in the same assay. […] The normalized value of cell-associated HIV-1 DNA loads corresponding to the ratio [(HIV-1 copy number/albumin copy number) × 2 × 10^6], was finally expressed as the number of HIV-1 DNA copies per 10^6 cells.
Monocyte-derived macrophages (A), monocyte-derived dendritic cells (B) and T cells (C) were incubated with R5 or X4 viruses in the presence of increasing concentrations of C14 or an unique dose of T 20 (5 μM) for 3 hours at 37°C. […] DNA was extracted and the viral DNA was quantified by real time PCR. […]

X4-tropic HIV-1 = test system: X4-tropic HIV-1
Procedure: (§3) To assess the transmission of HIV-1 from MDDC to autologous T-cells, MDDC were incubated into 96-well culture plates (10^5 cells/well) and infected with HIV-1 (1 ng p24) in the presence of increasing concentrations of molecules for 3 hours at 37°C in a 5% CO2 atmosphere. Cells were washed four times and autologous stimulated T cells were added onto infected MDDC at a MDDC/T-cell ratio of 1/5 for 6 days. Each sample was performed in triplicate. Culture supernatants were harvested every 3 days and fresh medium was added. Supernatants were inactivated with 1% Triton X-100. The viral production by T lymphocytes was evaluated the sixth day of the co-culture by measurement of HIV-1 p24 antigen in supernatants using capture ELISA.
(§4) Culture supernatants were harvested after 7 of culture for measurement of HIV p24 antigen.

R5-tropic HIV-1 = test system: R5-tropic HIV-1
Procedure: as §3, §4

R5-tropic HIV-1Ba-L [5] = assay: Inhibition of infection of macrophages by R5-HIV-1Ba-L (p24 ELISA); format: cell-based; conditions: MΦ, mean ± 1 SD
Procedure: as §1, §2

R5-tropic HIV-1Ba-L [6] = assay: Inhibition of infection of T cells by R5-HIV-1Ba-L (p24 ELISA); format: cell-based; conditions: mean ± 1 SD
Procedure: as §1, §2

R5-tropic HIV-1Ba-L [7] = conditions: 1 μM, 3 hours
Procedure: Monocytes or PBL (10E5 cells) were adsorbed on a microscopy-adapted slide for 6 days. MDDC, MDM or PBL were infected in the presence of C14 diluted at 10 μM for 3 hours. Cells were then washed and incubated with or without polyclonal antibodies anti-gp160 (50 μg/ml) at 4°C for 30 minutes. Cells were washed with PBS 0.01% azide 0.5% BSA, and were labelled with polyclonal mouse anti-human IgG-FITC (Jackson ImmunoResearch Laboratories, West Grove, PA, USA) and then fixed with 1% paraformaldehyde. The coverslides were mounted in Mowiol (Sigma-Aldrich). The observations were made by sequential acquisition with a Zeiss LSM510 System, mounted on an Axiovert 100 M optical microscope (Carl Zeiss AG, Oberkochen, Germany), using a planapochromat ×63, 1.4 numerical aperture oil immersion objective. Optical sections were acquired, each one with an image resolution of 512 × 512 pixels.
Cells were incubated with R5-tropic HIV-1Ba-L in the presence of 1 μM of C14 for 3 hours. […]
Monocyte-derived macrophages, monocyte-derived dendritic cells and T cells were incubated with R5 viruses in the presence of increasing concentrations of C14 for 3 hours at 37°C. […] Cells were then analysed by confocal microscopy. […] 30 cells were at least analyzed for each donor.

X4-tropic HIV-1NDK [8] = assay: Inhibition of infection of macrophages by X4-HIV-1NDK (p24 ELISA); format: cell-based; conditions: MΦ, mean ± 1 SD
Procedure: as §1, §2

X4-tropic HIV-1NDK [9] = assay: Inhibition of infection of T cells by X4-HIV-1NDK (p24 ELISA); format: cell-based; conditions: mean ± 1 SD
Procedure: as §1, §2

[10] = test system: R5-tropic HIV-1Ba-L particles
Procedure: (§5) As expected, no viral production was detected in control wells containing triton X100-treated HIV-1 and activated PBL (negative control).
(§6) HIV-1 was adsorbed on poly-L-lysin pre-coated wells (Greiner Bio-One) at 4°C overnight and further incubated with C14 for 1 h. In positive and negative control wells, 1% Triton X-100 and medium were added, respectively. […] After 6 days, viral production was assessed by p24 Ag capture ELISA.

[11] = test system: X4-tropic HIV-1 particles; conditions: 20 μM
Procedure: as §5, §6

R5-tropic HIV-1Ba-L [12] = assay: Inhibition of infection of dendritic cells by R5-HIV-1Ba-L (p24 ELISA); format: cell-based; conditions: DC, mean ± 1 SD
Procedure: as §1, §2

**Q.** Which “inhibition of HIV-1 replication, active concentration” value (HIV-1 [1]) does the source give for `C=C(C)[C@@H]1CC[C@]2(C(=O)NCCCCCCCC(=O)N[C@@H](CC(C)C)[C@H](O)CC(=O)O)CC[C@]3(C)[C@H](CC[C@@H]4[C@@]5(C)CC[C@H](O)C(C)(C)[C@@H]5CC[C@]43C)[C@@H]12` [IC9564] here?
**A.** nanomolar concentrations

**Q.** For `C=C(C)[C@@H]1CC[C@]2(C(=O)O)CC[C@]3(C)[C@H](CC[C@@H]4[C@@]5(C)CC[C@H](OC(=O)CC(C)(C)C(=O)O)C(C)(C)[C@@H]5CC[C@]43C)[C@@H]12` [PA-457], which “inhibition of HIV-1 replication, active concentration” value (HIV-1 [1]) is on record?
**A.** nanomolar concentrations

**Q.** With `CCCCCCCCCc1ccc(OCCOCCOCCOCCOCCOCCOCCOCCOCCO)cc1` [nonoxynol-9] as the compound, how does the “score of histological changes” value (vaginal mucosa) read?
**A.** about 8 ± 3

**Q.** Which IC50 (X4-tropic HIV-1NDK [2]) does the source give for zinc tetra-ascorbo-camphorate [C14] here?
**A.** 1800 ± 100 nM

**Q.** And the IC50 (HIV-1 [3]; different primary cells)?
**A.** 1000 nM

**Q.** And the EC50 (HIV-1 [3]; infection of all the primary cells tested)?
**A.** 1000 nM

**Q.** What about the “cell surface expressions of CD4, CXCR4 and CCR5” value (CD4, CXCR4 and CCR5) of the same compound?
**A.** not altered

**Q.** And the “reduction of the HIV-1 DNA content” value [4]?
**A.** 2–3 log

**Q.** What about the “inhibition of HIV-1 transfer from DC to T cells” value (X4-tropic HIV-1; 1 μM) of the same compound?
**A.** about 95%

**Q.** What about the “inhibition of HIV-1 transfer from DC to autologous T cells” value (X4-tropic HIV-1; low concentrations) of the same compound?
**A.** more than 90%

**Q.** What about the “inhibition of HIV-1 transfer from DC to T cells” value (R5-tropic HIV-1; 1 μM) of the same compound?
**A.** about 95%

**Q.** And the “inhibition of HIV-1 transfer from DC to autologous T cells” value (R5-tropic HIV-1; low concentrations)?
**A.** more than 90%

**Q.** And the IC50 (R5-tropic HIV-1Ba-L [5])?
**A.** 1300 ± 1000 nM

**Q.** And the IC50 (R5-tropic HIV-1Ba-L [6])?
**A.** 800 nM

**Q.** What about the “inhibition of entry of viruses” value (R5-tropic HIV-1Ba-L [7]; T cells) of the same compound?
**A.** inhibited the entry of viruses only into T cells

**Q.** And the “inhibition of entry of viruses” value (R5-tropic HIV-1Ba-L [7]; macrophages and DCs)?
**A.** unlike in macrophages and DCs

**Q.** And the IC50 (X4-tropic HIV-1NDK [8])?
**A.** 20 nM

**Q.** And the IC50 (X4-tropic HIV-1NDK [9])?
**A.** 700 ± 100 nM

**Q.** What about the “HIV-1 production by activated PBL, virus treated versus untreated with C14” value [10] of the same compound?
**A.** similar

**Q.** And the “disruption of HIV-1 particles” value [11]?
**A.** 58 ± 2%

**Q.** What about the IC50 (R5-tropic HIV-1Ba-L [12]) of the same compound?
**A.** 1300 ± 100 nM
